Results on 15 compounds are retold here after patent US5760036A, “Aminediol protease inhibitors” (E. R. Squibb & Sons, Inc., priority 1995, dated 1998).

The term inhibition denotes the percentage by which the read-out fell short of the control.

The first assay has as its target T1, HIV protease (Human immunodeficiency virus type 1 group M subtype B, UniProt P04585).
T1 construct: and purified protease
Description: HIV Protease Assay. The assay is classed as biochemical. To be noted: 10 μM inhibitor, 4% DMSO, 450 μM substrate, pH 5.5, 30 minutes at 37° C., RP-HPLC. The protocol: An HIV protease standard assay was performed in a 60 μl reaction medium containing 50 mM sodium acetate, pH 5.5, 100 μg/ml bovine serum albumen,450 μM substrate (H2 N-Val-Ser-Gln-Asn-(β-naphthyl-alanine)-Pro-Val-Ile-OH), and purified protease. The reaction medium was incubated for 30 minutes at 37° C., quenched by the addition of 140 μl 5% H3 PO4, then analyzed by reverse phase HPLC using UV220 detection. In a typical control assay, 7% of the substrate was hydrolyzed. Aminediol inhibitors of the present invention, listed in the following Table 1, were then employed in the assay, for which purpose they were prepared as a […] solution in DMSO, then diluted to 30 μM with 50 mM sodium acetate/bovine serum albumen. This working stock was then diluted three-fold into the protease reaction medium, for a final concentration of 10 μM inhibitor and 4% DMSO.
As for `CC(C)(C)OC(=O)N[C@@H](Cc1ccccc1)[C@H](O)CNC[C@@H](O)[C@H](Cc1ccccc1)NC(=O)C(O)(CO)C(C)(C)C` (single isomer, unassigned; isomer b) [Compound 367, [1S-[1R*,2S*(2S*,3R*)]]-[3-[[3-[[2-Hydroxy-2-(hydroxymethyl)-3.3-dimethyl-l-oxobutyl]amino]-2-hydroxy-4-phenylbutyl]amino]-2-hydroxy-1-(phenylmethyl)propyl]carbamic acid. 1.1-dimethylethyl ester, isomer B], the “HIV Protease % Inhibition at 10 μM” value turned out to be 50%. On the same count and under the same terms, as for `CC(C)(CO)OC(=O)N[C@@H](Cc1ccccc1)[C@H](O)CNC[C@@H](O)[C@H](Cc1ccccc1)NC(=O)C1(O)CCCC1(C)C` (single isomer, unassigned; isomer b) [Compound 369, [1S-[1R*,2S*(2S*,3R*)]]-[r3-[[3-[[(2,2-Dimethyl-1-hydroxycyclopentyl)-carbonyl]amino]-2-hydroxy-4-phenylbutyl]amino]-2-hydroxy-1-(phenylmethyl)propyl]carbamic acid, 2-hydroxy-1,1-dimethylethyl ester. isomer B], the figure is 96%; as for `COC(=O)NC(C)(C(=O)N[C@@H](Cc1ccccc1)[C@H](O)CNC[C@@H](O)[C@H](Cc1ccccc1)NC(=O)OC(C)(C)C)C(C)(C)C` (single isomer, unassigned; isomer b) [Compound 374, [1S-[1R*,2S*(2S*, 3R*)]]-[1-[[[3-[[3-[[(1,1-Dimethylethoxy)carbonyl]amino]-2-hydroxy-4-phenylbutyl]amino]-2-hydroxy-1-(phenylmethyl)propyl]amino]carbonyl]-1,2-dimethylpropyl]carbamic acid, methyl ester, isomer B], 28%. In the case of `CC(C)(C)OC(=O)N[C@@H](Cc1ccccc1)[C@H](O)CNC[C@@H](O)[C@H](Cc1ccccc1)NC(=O)C1(O)CCc2ccccc21` (single isomer, unassigned; isomer b) [Compound 376, [1S-[1R*,2S*(2S*, 3R*)]]-[3-[[3-[[(2,3-Dihydro-1-hydroxy-1H-inden-1-yl)carbonyl]amino]-2-hydroxy-4-phenylbutyl]amino]-2-hydroxy-1-(phenylmethyl)propyl]carbamic acid, 1.1-dimethylethyl ester, isomer B], the “HIV Protease % Inhibition at 10 μM” value is listed as 63%. In the case of `CC(C)(C)OC(=O)N[C@@H](Cc1ccccc1)[C@H](O)CNC[C@@H](O)[C@H](Cc1ccccc1)NC(=O)C(C)(O)c1ccccn1` (single isomer, unassigned; isomer b) [Compound 382, [1S-[1R*,2S*(2S*, 3R*)]]-[2-Hydroxy-3-[[2-hydroxy-3-[[2-hydroxy-1-oxo-2-(2-pyridinyl)propyl]amino]-4-phenylbutyl]amino]-1-(phenylmethyl)propyl]carbamic acid, 1.1-dimethylethyl ester, isomer B], the “HIV Protease % Inhibition at 10 μM” value is on record as 89%. Regarding `CNC(=O)C(O)(C(=O)N[C@@H](Cc1ccccc1)[C@H](O)CNC[C@@H](O)[C@H](Cc1ccccc1)NC(=O)OC(C)(C)C)C(C)(C)C` (single isomer, unassigned; isomer b) [Compound 385, [1S-[1R*,2S*(2S*, 3R*)]]-[3-[[3-[[2-Hydroxy-3,3-dimethyl-2-[(methylamino)carbonyl]-1-oxobutyl]amino]-2-hydroxy-4-phenylbutyl]amino]-2-hydroxy-1-(phenylmethyl)propyl]carbamic acid, 1,1-dimethylethyl ester, isomer B], the “HIV Protease % Inhibition at 10 μM” value is 99%.

The assay is the same for the next values; noted with them: pH 5.5, 10 μM inhibitor, 4% DMSO, 450 μM substrate, pH 5.5, 30 minutes at 37° C., RP-HPLC; read-out: HIV Protease % Inhibition at 10 μM.
Consider `CC(C)(C)OC(=O)N1CCC[C@H]1[C@H](O)CNC[C@H](O)[C@@H]1CCCN1C(=O)OC(C)(C)C` [Compound 8, [S-(R*,R*)]-2-[2-[[[S-(R*,S*)]-2-[1-[(1,1-Dimethylethoxy)carbonyl]-pyrrolidinyl]-2-hydroxyethyl]amino]-hydroxyethyl]-1-pyrrolidine-carboxylic acid, (1,1-dimethylethyl) ester], for which the inhibition at 10 µM came out at 2%.

With `CC(C)(C)OC(=O)N1Cc2ccccc2C[C@H]1[C@@H](O)CNC[C@H](O)[C@@H]1Cc2ccccc2CN1C(=O)OC(C)(C)C` [Compound 10, [S-(R*,R*)]-3,3'-[Iminobis(1-hydroxy-2,1-ethanediyl)]-bis[2(1H)-iso-quinolinecarboxylic acid], bis(1,1-dimethylethyl) ester], the inhibition at 10 µM worked out at 1%. With `CC(C)(C)OC(=O)N1Cc2ccccc2C[C@H]1[C@H](O)CNC[C@H](O)[C@@H]1Cc2ccccc2CN1C(=O)OC(C)(C)C` [Compound 12, [S-(R*,R*)]-3-[2-[[[-(R*,S*)]-2-[2-[(1,1-Dimethylethoxy)carbonyl]-1,2,3,4-tetrahydro-3-isoquinolinyl]-2-hydroxyethyl]amino]-1-hydroxyethyl]-3,4-dihydro-2(1H)-isoquinolinecarboxylic acid, (1,1-dimethylethyl) ester], the inhibition at 10 µM stood at 1%. Regarding `CC(C)(C)OC(=O)N[C@@H](Cc1ccccc1)[C@H](O)CNC[C@@H](O)[C@@H](Cc1ccccc1)NC(=O)OC(C)(C)C` [Compound 26i, [1R-[1R*,2R*(2R*,3S*)]]-3-[[3-[[(1,1-Dimethylethoxy)carbonyl]amino]-2-hydroxy-4-phenylbutyl]amino]-2-hydroxy-1-(phenylmethyl)propyl]carbamic acid, 1,1-dimethylethyl ester], the inhibition at 10 µM amounted to 57%. As to `CC(C)(C)OC(=O)N[C@@H](Cc1ccccc1)[C@H](O)CNC[C@H](O)[C@@H](Cc1ccccc1)NC(=O)OC(C)(C)C` [Compound 26ii, [1R-[1R*,2S*(2R*,3S*)]]-3-[[3-[[(1,1-Dimethylethoxy)carbonyl]amino]-2-hydroxy-4-phenylbutyl]amino]-2-hydroxy-1-(phenylmethyl)-propyl]carbamic acid, 1,1-dimethylethyl ester], the inhibition at 10 µM stood at 41%.

Consider `CC(C)(C)OC(=O)N[C@@H](Cc1ccccc1)[C@@H](O)CNCC(O)[C@@H](Cc1ccccc1)NC(=O)OC(C)(C)C` (stereo partly drawn) [Compound 27, [1S-[1R*,2R*(3S*)]]-[3-[[3-[[(1,1-Dimethylethoxy)carbonyl]amino]-2-hydroxy-4-phenylbutyl]amino]-2-hydroxy-1-(phenylmethyl)propyl]-carbamic acid 1,1-dimethylethyl ester], for which the inhibition at 10 µM is 19%. Still for that read-out and setting: next, `CC(C)[C@H](N)C(=O)N[C@@H](Cc1ccccc1)[C@H](O)CNC[C@@H](O)[C@H](Cc1ccccc1)NC(=O)[C@@H](N)C(C)C` [Compound 43, [S-(1S*,2R*)]-N,N'-[Iminobis[2-hydroxy-1-(phenylmethyl)-3,1-propanediyl]]bis-L-valinamide]: 21%; `CC(C)(C)OC(=O)N[C@@H](Cc1ccccc1)C(=O)N[C@@H](Cc1ccccc1)[C@H](O)CNC[C@@H](O)[C@H](Cc1ccccc1)NC(=O)OC(C)(C)C` [Compound 56, [S-[1R*,2S*(2S*,3R*)]-N^2-[(1,1-Dimethylethoxy)carbonyl]-N-[3-[[3-[[(1,1-dimethlethoxy)carbonyl]amino]-2-hydroxy-4-phenylbutyl]-amino]-2-hydroxy-1-(phenylmethyl)propyl]-L-phenylalaninamide]: 47%; `CC(C)[C@H](N)C(=O)N[C@@H](Cc1ccccc1)[C@H](O)CNC[C@@H](O)[C@H](Cc1ccccc1)NC(=O)OC(C)(C)C` [Compound 59, [S-[1R*,2S*(2S*,3R*)-N-[3 [[3-[[(1,1-Dimethylethoxy)carbonyl]amino]-2-hydroxy-4-phenylbutyl]amino]-2-hydroxy-1-(phenylmethyl)-propyl-L-valinamide]: 45%.
